Measured values taken from patent publication US20250136633A1, “TELOMERE-TARGETING PHOSPHATIDYL-THIO CONJUGATES” (MAIA BIOTECHNOLOGY, INC., priority 2023, published 2025).

Columns and labels:
[1] = tested on: HT29 Colorectal Carcinoma Cells (CRC); test: In vitro anticancer activity (cytotoxicity) of phosphatidyl-THIO conjugates in HT29 cells; type: cell-based; conditions: for EC50: Homo sapiens, HT 29 CRC cells; for anticancer (cytotoxic) activity, in words: in vitro, comparison among the phosphatidyl conjugates and with the free pharmacophores
Protocol: The in vitro activity of Phosphatidyl-THIO conjugates were tested in HT29 Colorectal Carcinoma Cells (CRC) (Table 2)
Anticancer activity of the one or more phosphatidyl-THIO conjugate compounds disclosed herein, was evaluated in vitro in various cancer cell lines, according to commonly used procedures for assessment of compounds cytotoxicity, as out lined in the following publications: Mender, I., Gryaznov, S., Dikmen, Z. G., Wright, W. E., & Shay, J. W. (2015). Induction of telomere dysfunction mediated by the telomerase substrate precursor 6-thio-2′-deoxyguanosine. Cancer Discovery, 5, 82-95; Mender et al., (2020). Telomere Stress Potentiates STING-Dependent Anti-tumor Immunity. Cancer Cell, 38, 400-411.

cancer cells = test: Induction of telomere dysfunction-induced foci (TIF) and micronuclei in cancer cells; type: cell-based; conditions: treatment of cancer cells; data not shown

Row | Compound | EC50 [1] | anticancer (cytotoxic) activity, in words [1] | induction of telomere dysfunction-induced foci (TIF)-positive cells and micronuclei formation (cancer cells)
1 | CCCCCCCCCCCCCCCCCC(=O)OC[C@H](COP(=O)(O)OC[C@H]1O[C@@H](n2cnc3c(=S)[nH]c(N)nc32)C[C@@H]1O)OC(=O)CCCCCCCCCCCCCCCCC [Compound C18-6SdG, 5′-(1,2-distearoyl-sn-glycero-3-phospho)-6-thio-2′-deoxyguanosine] | 12400 nM | least active | –
2 | CCCCCCCCCCCC(=O)OC[C@H](COP(=O)(O)OC[C@H]1O[C@@H](n2cnc3c(=S)[nH]c(N)nc32)[C@H](O)[C@@H]1O)OC(=O)CCCCCCCCCCC [Compound C12-6SriboG, 5′-(1,2-dilauroyl-sn-glycero-3-phospho)-6-thio-guanosine] | 600 nM | – | –
3 | CCCCCCCC(=O)OC[C@H](COP(=O)(O)OC[C@H]1O[C@@H](n2cnc3c(=S)[nH]c(N)nc32)C[C@@H]1O)OC(=O)CCCCCCC [Compound C8-6SdG, 5′-(1,2-dioctanoyl-sn-glycero-3-phospho)-6-thio-2′-deoxyguanosine] | 350 nM | – | –
4 | CCCCCCCCCCCCCC(=O)OC[C@H](COP(=O)(O)OC[C@H]1O[C@@H](n2cnc3c(=S)[nH]c(N)nc32)C[C@@H]1O)OC(=O)CCCCCCCCCCCCC [Compound C14-6SdG, 5′-(1,2-dimyristoyl-sn-glycero-3-phospho)-6-thio-2′-deoxyguanosine] | 490 nM | – | –
5 | Nc1nc2c(ncn2[C@H]2C[C@H](O)[C@@H](CO)O2)c(=S)[nH]1 [Compound 6-thio-dG, 6-thio-2′-deoxyguanosine, reference compound] | 200 nM | – | –
6 | CCCCCC(=O)OC[C@H](COP(=O)(O)OC[C@H]1O[C@@H](n2cnc3c(=S)[nH]c(N)nc32)[C@H](O)[C@@H]1O)OC(=O)CCCCC [Compound C6-6SriboG, 5′-(1,2-dihexanoyl-sn-glycero-3-phospho)-6-thio-guanosine] | 200 nM | – | –
7 | CCCCCCCCCCCC(=O)OC[C@H](COP(=O)(O)OC[C@H]1O[C@@H](n2cnc3c(=S)[nH]c(N)nc32)C[C@@H]1O)OC(=O)CCCCCCCCCCC [Compound C12-6SdG, 5′-(1,2-dilauroyl-sn-glycero-3-phospho)-6-thio-2′-deoxyguanosine] | 480 nM | – | –
8 | CCCCCC(=O)OC[C@H](COP(=O)(O)OC[C@H]1O[C@@H](n2cnc3c(=S)[nH]c(N)nc32)C[C@@H]1O)OC(=O)CCCCC [Compound C6-6SdG, 5′-(1,2-dihexanoyl-sn-glycero-3-phospho)-6-thio-2′-deoxyguanosine] | 80 nM | – | efficient induction
9 | CCCCCCCC(=O)OC[C@H](COP(=O)(O)OC[C@H]1O[C@@H](n2cnc3c(=S)[nH]c(N)nc32)[C@H](O)[C@@H]1O)OC(=O)CCCCCCC [Compound C8-6SriboG, 5′-(1,2-dioctanoyl-sn-glycero-3-phospho)-6-thio-guanosine] | 260 nM | – | –
10 | CCCC(=O)OC[C@H](COP(=O)(O)OC[C@H]1O[C@@H](n2cnc3c(=S)[nH]c(N)nc32)C[C@@H]1O)OC(=O)CCC [Compound C4-6SdG, 5′-(1,2-dibutyryl-sn-glycero-3-phospho)-6-thio-2′-deoxyguanosine] | 260 nM | – | –
11 | CCCCCCCC/C=C\CCCCCCCC(=O)OC[C@H](COP(=O)(O)OC[C@H]1O[C@@H](n2cnc3c(=S)[nH]c(N)nc32)C[C@@H]1O)OC(=O)CCCCCCC/C=C\CCCCCCCC [C18:01-6SdG, 5′-(1,2-dioleoyl-sn-glycero-3-phospho)-6-thio-2′-deoxyguanosine] | 460 nM | essentially recovered cytotoxic activity | –
